Results reported in US11730741B2, “6-chromanol derivatives for use as a medicament” (Sulfateq B.V., priority 2017, dated 2023).
Marks after values point to notes of the source that are not given here.

Columns and labels:
[1] = target: T1, human α1 adrenoceptor subtype A (Homo sapiens, UniProt P35348); assay: Intracellular calcium assay (FLIPR Calcium 6), phenylephrine-stimulated CHO cells overexpressing α1A adrenoceptor; assay type: cell-based; conditions: for logEC50 of phenylephrine-induced calcium influx, α1A: 30 min at 37° C.
T1 construct: expressed in transfected cells; host or cells: CHO-K1
T1 sequence (P35348 1-466): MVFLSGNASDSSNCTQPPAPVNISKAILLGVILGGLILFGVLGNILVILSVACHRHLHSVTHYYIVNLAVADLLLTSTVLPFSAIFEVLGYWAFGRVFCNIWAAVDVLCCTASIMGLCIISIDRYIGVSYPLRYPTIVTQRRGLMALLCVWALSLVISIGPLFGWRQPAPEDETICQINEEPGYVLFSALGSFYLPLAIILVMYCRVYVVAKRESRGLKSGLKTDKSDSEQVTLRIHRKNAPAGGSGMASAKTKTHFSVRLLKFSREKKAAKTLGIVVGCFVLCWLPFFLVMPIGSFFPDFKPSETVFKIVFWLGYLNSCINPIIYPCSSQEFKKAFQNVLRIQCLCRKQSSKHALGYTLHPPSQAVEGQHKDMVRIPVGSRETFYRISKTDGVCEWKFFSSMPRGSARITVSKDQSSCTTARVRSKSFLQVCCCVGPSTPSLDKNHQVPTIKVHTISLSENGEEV
Method: (§1) CHO—K1 cells were stably transfected with a plasmid containing human α1-AR subtypes A, B and D in separate cell lines in DMEM-F12 medium with 10% FBS, 1% penicillin-streptomycin and 200 μg/mL Geneticin (G418, Invitrogen, Carlsbad, Calif.).
(§2) On the next day, CHO cells were treated with either vehicle (0.1% DMSO) or SUL-150 resp. SUL-151 for 30 min at 37° C. and stimulated with a 3-fold dilution series of PE ([…]). [Ca^2+]i was measured using the fluorescent FLIPR Calcium 6 assay kit (Molecular Devices) in immortalized CHO cells stably expressing the α1 adrenoceptor.
(§3) Initially, calcium responses induced by non-cumulative concentration series of phenylephrine were investigated using fluorescent measurements in α1A adrenoceptor-overexpressing CHO cells treated with SUL-150 and SUL-151 (FIG. 4). Fluorescent measurement data was processed and analyzed in SoftMax Pro 7 and expressed as % of baseline AUC with a 3-fold multiplier using an average of first 10 measurement points as baseline.
(§4) The “Vehicle” used in all experiments is 0.1% DMSO solution.

[2] = tested on: isolated porcine intrarenal arteries; assay: Myography: phenylephrine-induced constriction of isolated porcine intrarenal arteries; conditions: 30 min pre-incubation
Method: Porcine kidneys were obtained from a local slaughterhouse (Kroon Vlees, Gotenburgweg 30, 9723 ™ Groningen, The Netherlands) and transported on ice in normal physiological Krebs buffer containing 120 mM NaCl, 6 mM KCl, 2.5 mM CaCl2×2H2O, 1.2 mM MgCl2×6H2O, 1.2 mM NaH2PO4×H2O, 25 mM NaHCO3 and 11.4 mM D-(+)-Glucose monohydrate (all ingredients were purchased from Merck) in ultrapure water.
The renal artery tree was dissected from the kidney, cleaned of surrounding connective tissue and cut into equally-sized ring segments (2 mm in length). In some rings, endothelium denudation was performed by gentle rubbing of the intimal surface with a paper clip. Rings were mounted in organ baths as described previously (Buikema et al., 2000).
Arterial rings were washed thoroughly by replacing Krebs buffer and allowed to equilibrate for a period of 60 min under 1.4 g of resting tension before they were assessed for viability by inducing 2 subsequent constrictions with KCl (60 mM). […] After washout and stabilization, rings were treated for 30 minutes by incubation with vehicle (0.1% DMSO), SUL-121, SUL-150 or SUL-151, followed by subsequent incubation with cumulative doses of phenylephrine.
Dose-dependent constriction responses to phenylephrine (10^−8M-10^−4M) were recorded in isolated porcine intrarenal arteries. Buffer was warmed to 37° C. and aerated with 95% O2 and 5% CO2 before use.
Vascular constriction responses are expressed as percentage of final response to KCl. Data are expressed as mean±SEM. *p<0.05.
To explore the effects of 2R and 2S-(6-hydroxy-2,5,7,8-tetramethylchroman-2-yl)(piperazin-1-yl)methanone (resp. SUL-150 and SUL-151) on constriction of isolated porcine intrarenal arteries, cumulative dose response curves to the α1 adrenoceptor agonist phenylephrine (PE) were constructed in the presence and absence of SUL-150 resp SUL-151 (FIG. 1).

[3] = target: T2, human α1 adrenoceptor subtype B (Homo sapiens, UniProt P35368); assay: Intracellular calcium assay (FLIPR Calcium 6), phenylephrine-stimulated CHO cells overexpressing α1B adrenoceptor; assay type: cell-based; conditions: for logEC50 of phenylephrine-induced calcium influx, α1B: 30 min at 37° C.
T2 construct: expressed in transfected cells; host or cells: CHO-K1
T2 sequence (P35368 1-520): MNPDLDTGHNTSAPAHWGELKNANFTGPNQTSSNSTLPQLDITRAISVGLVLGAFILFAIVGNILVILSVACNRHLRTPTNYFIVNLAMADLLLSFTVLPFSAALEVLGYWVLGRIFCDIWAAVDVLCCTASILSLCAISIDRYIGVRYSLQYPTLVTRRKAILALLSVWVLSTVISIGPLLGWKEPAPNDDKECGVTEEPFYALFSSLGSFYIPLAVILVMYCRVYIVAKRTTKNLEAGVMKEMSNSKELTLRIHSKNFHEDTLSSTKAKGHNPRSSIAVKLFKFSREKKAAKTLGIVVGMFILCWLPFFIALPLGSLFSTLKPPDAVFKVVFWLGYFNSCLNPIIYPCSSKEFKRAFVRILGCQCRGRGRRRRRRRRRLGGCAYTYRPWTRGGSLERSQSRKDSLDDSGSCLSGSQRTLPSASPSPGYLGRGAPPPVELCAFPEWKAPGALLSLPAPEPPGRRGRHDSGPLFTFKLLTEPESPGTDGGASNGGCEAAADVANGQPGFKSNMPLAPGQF
Method: as §1, §2, §3, §4

[4] = target: T3, α1A adrenoceptor (Homo sapiens, UniProt P35348); assay: Radioligand displacement binding assay with [7-Methoxy-3H]-prazosin in α1A adrenoceptor transgenic CHO cells
T3 construct: expressed in transfected cells; host or cells: CHO
T3 sequence (P35348 1-466): T1 sequence (P35348 1-466)
From the text: We therefore explored whether SUL-150 could directly interact with the α1 adrenoceptor as a receptor antagonist.

[5] = target: T4, human α1 adrenoceptor subtype D (Homo sapiens, UniProt P25100); assay: Intracellular calcium assay (FLIPR Calcium 6), phenylephrine-stimulated CHO cells overexpressing α1D adrenoceptor; assay type: cell-based; conditions: for logEC50 of phenylephrine-induced calcium influx, α1D: 30 min at 37° C.
T4 construct: expressed in transfected cells; host or cells: CHO-K1
T4 sequence (P25100 1-572): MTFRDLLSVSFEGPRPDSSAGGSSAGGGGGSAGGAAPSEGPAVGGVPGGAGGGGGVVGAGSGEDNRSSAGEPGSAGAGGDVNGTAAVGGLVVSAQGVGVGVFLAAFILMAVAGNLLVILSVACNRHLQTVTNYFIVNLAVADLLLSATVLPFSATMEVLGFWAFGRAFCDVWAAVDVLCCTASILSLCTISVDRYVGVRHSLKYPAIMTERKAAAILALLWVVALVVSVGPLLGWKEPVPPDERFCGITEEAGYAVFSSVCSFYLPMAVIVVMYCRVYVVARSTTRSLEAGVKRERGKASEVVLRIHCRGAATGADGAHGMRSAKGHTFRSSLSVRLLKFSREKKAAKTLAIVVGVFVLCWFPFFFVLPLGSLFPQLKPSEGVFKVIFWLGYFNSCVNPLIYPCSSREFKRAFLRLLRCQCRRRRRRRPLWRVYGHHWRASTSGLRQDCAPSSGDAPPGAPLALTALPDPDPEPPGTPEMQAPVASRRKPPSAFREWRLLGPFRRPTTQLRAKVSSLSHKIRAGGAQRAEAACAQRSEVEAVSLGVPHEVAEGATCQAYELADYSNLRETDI
Method: as §1, §2, §3, §4

[6] = screening of a range of SUL compounds including trolox; cited from earlier work
[7] = tested on: experimental in vivo models of COPD; conditions: cited from earlier work
[8] = in the presence of 10 μM compound
[9] = in the presence of 30 μM compound
[10] = in the presence of 100 μM compound

SMILES	effect on PE-induced calcium transients, α1A subtype, in words [1]	logEC50 of phenylephrine-induced calcium influx, α1A ([1]; 10 μM compound)	logEC50 of phenylephrine-induced calcium influx, α1A ([1]; 30 μM compound)	logEC50 of phenylephrine-induced calcium influx, α1A ([1]; 100 μM compound)	logEC50 of phenylephrine-induced constriction responses [2, 8]	logEC50 of phenylephrine-induced constriction responses [2, 9]	logEC50 of phenylephrine-induced constriction responses [2, 10]	effect on PE-induced calcium transients, α1B subtype, in words [3]	effect on PE-induced calcium transients, α1D subtype, in words [5]	also measured
Cc1c(C)c2c(c(C)c1O)CC[C@@](C)(C(=O)N1CCNCC1)O2 [SUL-151, (2S)(6-hydroxy-2,5,7,8-tetramethylchroman-2-yl)(piperazin-1-yl)methanone]	did not affect calcium transients	−8.09 ± 0.10	−8.09 ± 0.11	−7.98 ± 0.10	−5.82 ± 0.05	−5.89 ± 0.04	−5.77 ± 0.04	did not affect calcium transients	did not affect calcium transients	concentrations at which [7-Methoxy-3H]-prazosin was displaced [4]: higher than 10 μM
Cc1c(C)c2c(c(C)c1O)CCC(C)(C(=O)N1CCNCC1)O2 (stereo not shown) [SUL-150, (6-hydroxy-2,5,7,8-tetramethylchroman-2-yl)(piperazin-1-yl)methanone]	shifted dose response curves rightwards	−7.62 ± 0.03	−7.28 ± 0.03	−6.88 ± 0.03	−5.11 ± 0.09*	−5.06 ± 0.06*	−4.44 ± 0.09*	shifted dose response curves rightwards	shifted dose response curves rightwards	logEC50 of phenylephrine-induced calcium influx, α1B ([3]; 10 μM compound): −7.51 ± 0.08; logEC50 of phenylephrine-induced calcium influx, α1B ([3]; 30 μM compound): −7.24 ± 0.07; logEC50 of phenylephrine-induced calcium influx, α1B ([3]; 100 μM compound): −6.72 ± 0.08; potency in displacing the radioligand, compared to SUL-151, in words [4]: significantly more potent; logEC50 of phenylephrine-induced calcium influx, α1D ([5]; 10 μM compound): −7.37 ± 0.10; logEC50 of phenylephrine-induced calcium influx, α1D ([5]; 30 μM compound): −7.04 ± 0.06; logEC50 of phenylephrine-induced calcium influx, α1D ([5]; 100 μM compound): −6.80 ± 0.10
Cc1c(C)c2c(c(C)c1O)CCC(C)(C(=O)N1CCNCC1)O2 (racemic) [SUL-121, (6-hydroxy-2,5,7,8-tetramethylchroman-2-yl)(piperazin-1-yl)methanone]	–	–	–	–	–	–	–	–	–	anti-oxidant effect [6]: very potent anti-oxidant effect; LPS-induced airway neutrophilia [7]: dose-dependently reduced; LPS-induced attenuation of H2S production [7]: dose-dependently reduced; neutrophilia-related as well as unrelated ROS production [7]: dose-dependently reduced; nuclear translocation of the antioxidative response regulator Nrf2 [7]: inhibited
